The structures appear in SMILES notation.

The source of these data is publication PMC10523607 (Proceedings of the National Academy of Sciences of the …, 2023).

In the experiment the target is GPR34 (Homo sapiens, UniProt Q9UPC5). The experiment is described as follows: Tango assay. The experiment is classed as cell-based. Particulars: compared with Hit-1 or YL-365.
Chain of GPR34 (Q9UPC5 whole entry): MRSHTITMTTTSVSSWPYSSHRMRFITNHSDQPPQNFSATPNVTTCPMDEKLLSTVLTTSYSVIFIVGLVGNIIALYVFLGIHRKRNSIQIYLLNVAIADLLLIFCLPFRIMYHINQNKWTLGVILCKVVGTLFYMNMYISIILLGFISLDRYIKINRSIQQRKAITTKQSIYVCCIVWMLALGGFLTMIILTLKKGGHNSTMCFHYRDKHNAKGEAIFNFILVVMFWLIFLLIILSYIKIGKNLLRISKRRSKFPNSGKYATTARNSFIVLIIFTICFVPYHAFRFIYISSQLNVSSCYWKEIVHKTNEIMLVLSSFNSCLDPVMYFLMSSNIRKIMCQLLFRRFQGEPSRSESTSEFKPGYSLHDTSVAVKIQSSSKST

As for `NC(=O)C1(NC(=O)Cc2ccc(OCc3ccccc3)cc2)CCN(C(=O)c2ccc(-c3cccc(Cl)c3)cc2)CC1` [C-27], the “Potency against GPR34 in words (SAR)” value is “showed antagonistic effect”.
